pEC50: −log10 of the molar value. Entries after “also recorded” stand apart in the source; their conditions may differ.
Key:
genotype D HBV = test: primary human hepatocyte (PHH) assay, extracellular HBV DNA by qPCR
Procedure: To determine the anti-HBV activity of ZM-H1505R, the primary human hepatocyte (PHH) assay was performed in vitro. One day after infection with genotype D HBV, ZM-H1505R was added to the culture medium of PHH. The culture medium supplemented with ZM-H1505R was changed every two days. The culture supernatants were collected, of which the extracellular HBV DNA content was measured by qPCR.

HBV = test: phase 1b trial: antiviral activity (serum HBV markers) in CHB patients; format: in vivo, Hepatitis B virus
Procedure: The changes in the serum levels of HBV DNA, HBV pgRNA, HBcrAg, HBsAg, HBsAb, HBeAg, HBeAb, and HBcAb at different time points were examined. Blood samples were collected on the initial screening day (baseline) and days 1, 8, 15, 22, 29, 43 ± 1, and 57 ± 2 postdosing.
The HBV DNA level was measured using a COBAS TaqMan kit (Roche Diagnostics, Pleasanton, CA, USA), according to the manufacturer’s instructions. The lowest detectable level using this kit was 20 IU/mL. The serum levels of HBeAg and HBsAg were quantitatively assessed by a chemiluminescence method using Abbott Architect assays (Abbott Diagnostics; Abbott Park, IL, USA). The lowest detectable level of the kit for HBeAg and HBsAg were 1 and 0.05 IU/mL, respectively.

[1] = cited from earlier work
[2] = phase 1b trial: plasma pharmacokinetics in CHB patients; conditions: for mean plasma trough concentration relative to protein-binding adjusted HBV DNA EC50 (135 ng/mL): day 28
Procedure: Blood samples for Canocapavir PK analysis were collected at different time points, and were collected and placed into a vacutainer with an anticoagulant (K2-EDTA), followed by centrifugation at 2,000 g and 4 °C for 10 min to collect the plasma.
All of these parameters in the treatment cohorts were analyzed using the descriptive statistics methods provided by SAS 9.1 software (Cary, NC, USA). The dose proportionality of Canocapavir was evaluated by the power model and the linear fixed-effect model. Descriptive analysis was used for safety, tolerability and antiviral activity indexes. Please see Additional file 1 for the detailed methodology.
The concentration of Canocapavir was determined using a validated high-performance liquid chromatography-tandem mass spectrometry method of FRONTAGE Laboratories (Shanghai, China), with a detection range of 10–10,000 ng/mL.
Blood samples for Canocapavir PK analysis were collected at different time points, including preadministration (30 min predosing) and 0.5, 1, 2, 3, 4, 6, 8, 12, and 24 h postdosing on day 1; predosing on days 8, 15, 22, 27, and 28; and 0.5, 1, 2, 3, 4, 6, 8, 12, 24, 48, and 72 h postdosing on day 28.

[3] = 100 mg q.d., single patient with ALT flare

O=C1CO[C@H](c2cn(-c3ccc(Br)cc3)nc2-c2ccc(F)cc2)N1CCc1ccc2[nH]c(=O)[nH]c2c1 [Canocapavir]
protein binding-adjusted HBV DNA EC50 (genotype D HBV; protein-binding adjusted): 135 ng/mL | protein binding-adjusted HBV DNA EC90 (genotype D HBV; protein-binding adjusted): 937 ng/mL | pEC50 (genotype D HBV; read-out: EC50, inhibition of extracellular HBV DNA generation, PHH infected with genotype D HBV): 7.91 | EC90 (genotype D HBV; read-out: EC90, inhibition of extracellular HBV DNA generation, PHH infected with genotype D HBV): 83.3 nM | patients with HBV DNA reduced below the lower limit of quantification (HBV; 50 mg q.d.): 0 number of patients (percentage | patients with HBV pgRNA reduced below the lower limit of quantification (~ 2 log10 copies/mL) (HBV; 50 mg q.d.): 1 (12.5%) number of patients (percentage | maximum mean HBcrAg decrease (HBV; 50 mg q.d., 28 days): -0.30 log10 kU/mL | mean maximum HBV DNA decline from baseline (HBV; 50 mg q.d., 28 days): -1.54 log10 IU/mL | mean maximum HBV pgRNA decline from baseline (HBV; 50 mg q.d., 28 days): -1.53 log10 copies/mL | HBV DNA response, subject E2003 with pre-existing HBc P25S substitution (HBV; 50 mg q.d., HBeAg (+) patient): no decrease | HBV pgRNA response, subject E2003 with pre-existing HBc P25S substitution (HBV; 50 mg q.d., HBeAg (+) patient): only slightly decreased; also recorded: only a slight decrease | patients with HBV DNA reduced below the lower limit of quantification (HBV; 100 mg q.d.): 1 (12.5%) number of patients (percentage | patients with HBV pgRNA reduced below the lower limit of quantification (~ 2 log10 copies/mL) (HBV; 100 mg q.d.): 1 (12.5%) number of patients (percentage | maximum mean HBcrAg decrease (HBV; 100 mg q.d., 28 days): -0.61 log10 kU/mL | mean maximum HBV DNA decline from baseline (HBV; 100 mg q.d., 28 days): -2.50 log10 IU/mL | mean maximum HBV pgRNA decline from baseline (HBV; 100 mg q.d., 28 days): -2.35 log10 copies/mL | maximum decrease of HBV DNA, patient E3010 (HBV; [3]): -3.23 log10 IU/mL | maximum decrease of HBV pgRNA, patient E3010 (HBV; [3]): -3.71 log10 copies/mL | maximum decrease of HBcrAg, patient E3010 (HBV; [3]): -1.96 log10 kU/mL | maximum decrease of HBsAg, patient E3010 (HBV; [3]): -0.22 log10 IU/mL | patients with HBV DNA reduced below the lower limit of quantification (HBV; 200 mg q.d.): 1 (12.5%) number of patients (percentage | patients with HBV pgRNA reduced below the lower limit of quantification (~ 2 log10 copies/mL) (HBV; 200 mg q.d.): 4 (50.0%) number of patients (percentage | maximum mean HBcrAg decrease (HBV; 200 mg q.d., 28 days): -0.51 log10 kU/mL | mean maximum HBV DNA decline from baseline (HBV; 200 mg q.d., 28 days): -2.75 log10 IU/mL | mean maximum HBV pgRNA decline from baseline (HBV; 200 mg q.d., 28 days): -2.34 log10 copies/mL | change of HBeAg level (HBV; 50–200 mg q.d., 28 days): Neither the HBsAg nor HBeAg levels decreased | change of HBsAg level (HBV; 50–200 mg q.d., 28 days): Neither the HBsAg nor HBeAg levels decreased | changes in levels of HBsAb, HBeAb, HBcAb (HBV; 50–200 mg q.d., 28 days): no clinically significant changes | accumulation rate after multiple administration ([1]; healthy subjects): 1.7–2.3 | dose proportionality of mean plasma AUC and Cmax ([1]; healthy subjects): increased in a dose-proportional manner | food effect on drug absorption ([1]; healthy subjects): Food had an effect on the drug absorption | half-life after multiple administration ([1]; healthy subjects): 12.2 to 21.7 h | margin between plasma exposure and anti-HBV activity EC50 in vitro ([1]; healthy subjects): 11.2–37.5 fold | most common AE ([1]; healthy subjects): increased ALT | safety and tolerability in healthy subjects ([1]; single doses 25–450 mg, multiple doses 75–300 mg q.d. for 14 days): safe and well tolerated | mean plasma trough concentration relative to protein-binding adjusted HBV DNA EC50 (135 ng/mL) ([2]; 100 mg q.d.): 7.0 fold | mean plasma trough concentration relative to protein-binding adjusted HBV DNA EC50 (135 ng/mL) ([2]; 200 mg q.d.): 14.6 fold | power model slope (regression coefficient) of exposure (Cmax and AUC) vs dose ([2]; human, in vivo): 0.82–1.14 | time to maximum concentration (Tmax) ([2]; human, in vivo): 2 to 3 h | AUC0-∞ ([2]; human, in vivo, 50 mg): 25,625.6 ± 15,804.7 h·ng/mL | CL/F ([2]; human, in vivo, 50 mg): 3.4 ± 1.5 L/h | Vz/F ([2]; human, in vivo, 50 mg): 61.4 ± 23.0 L | t1/2 ([2]; human, in vivo, 50 mg): 13.0 ± 1.9 h | AUC0-∞ ([2]; human, in vivo, 100 mg): 59,399.0 ± 18,159.0 h·ng/mL | CL/F ([2]; human, in vivo, 100 mg): 2.5 ± 0.6 L/h | Tmax ([2]; human, in vivo, 100 mg): 3.0 (2.0, 4.0) h | Vz/F ([2]; human, in vivo, 100 mg): 42.3 ± 10.9 L | t1/2 ([2]; human, in vivo, 100 mg): 12.1 ± 3.7 h | AUC0-∞ ([2]; human, in vivo, 200 mg): 120,090.0 ± 57,318.9 h·ng/mL | CL/F ([2]; human, in vivo, 200 mg): 3.3 ± 2.0 L/h | Vz/F ([2]; human, in vivo, 200 mg): 73.6 ± 43.4 L | mean t1/2 after the last dosage ([2]; human, in vivo, 200 mg): 12.1 to 15.6 h | t1/2 ([2]; human, in vivo, 200 mg): 15.6 ± 2.3 h

Source: paper PMC10022191, “Safety, tolerability, pharmacokinetics, and antiviral activity of the novel core protein allosteric modulator ZM-H1505R (Canocapavir) in chronic hepatitis B patients: a randomized multiple-dose escalation trial” (BMC Medicine, 2023)
